Test results: patent publication US20150045284A1 (priority 2011, published 2015)

Legend:
[1] = molecular target: LpCopA (Legionella pneumophila Cu^+ transporting P-type ATPase) (Legionella pneumophila subsp. pneumophila, UniProt Q5ZWR1); conditions: for Measured LpCopA activity in the presence of different ions (relative ATPase activity): 100 μM CuCl2 or AgNo3, 1 mg/mL E. coli total lipid extract, 20 mM cysteine, TTM background subtracted
HMBD-truncated LpCopA = HMBD-truncated LpCopA (Legionella pneumophila subsp. pneumophila, UniProt Q5ZWR1)
HMBD-truncated LpCopA, sequence (Q5ZWR1 75-736 limits assumed): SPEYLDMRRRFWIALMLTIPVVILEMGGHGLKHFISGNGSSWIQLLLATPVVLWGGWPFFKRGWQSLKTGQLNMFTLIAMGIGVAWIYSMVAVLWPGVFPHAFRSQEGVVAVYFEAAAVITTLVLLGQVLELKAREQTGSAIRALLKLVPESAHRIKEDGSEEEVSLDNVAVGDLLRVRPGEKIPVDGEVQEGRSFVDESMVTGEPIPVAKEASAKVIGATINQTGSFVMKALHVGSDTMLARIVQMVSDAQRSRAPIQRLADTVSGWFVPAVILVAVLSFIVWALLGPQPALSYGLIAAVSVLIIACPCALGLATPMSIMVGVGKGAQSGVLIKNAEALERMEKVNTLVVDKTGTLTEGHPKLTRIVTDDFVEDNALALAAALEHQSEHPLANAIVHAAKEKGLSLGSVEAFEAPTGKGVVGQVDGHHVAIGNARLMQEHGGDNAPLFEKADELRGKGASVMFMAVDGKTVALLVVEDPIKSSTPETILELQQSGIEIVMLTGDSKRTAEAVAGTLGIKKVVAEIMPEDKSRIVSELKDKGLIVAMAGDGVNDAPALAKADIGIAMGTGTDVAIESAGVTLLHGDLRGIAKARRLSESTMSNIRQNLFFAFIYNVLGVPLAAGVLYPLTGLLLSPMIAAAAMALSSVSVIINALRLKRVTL

LpCopA (Legionella pneumophila Cu^+ transporting P-type ATPase), sequence (Q5ZWR1 whole entry, looked up, the tested form may be a part): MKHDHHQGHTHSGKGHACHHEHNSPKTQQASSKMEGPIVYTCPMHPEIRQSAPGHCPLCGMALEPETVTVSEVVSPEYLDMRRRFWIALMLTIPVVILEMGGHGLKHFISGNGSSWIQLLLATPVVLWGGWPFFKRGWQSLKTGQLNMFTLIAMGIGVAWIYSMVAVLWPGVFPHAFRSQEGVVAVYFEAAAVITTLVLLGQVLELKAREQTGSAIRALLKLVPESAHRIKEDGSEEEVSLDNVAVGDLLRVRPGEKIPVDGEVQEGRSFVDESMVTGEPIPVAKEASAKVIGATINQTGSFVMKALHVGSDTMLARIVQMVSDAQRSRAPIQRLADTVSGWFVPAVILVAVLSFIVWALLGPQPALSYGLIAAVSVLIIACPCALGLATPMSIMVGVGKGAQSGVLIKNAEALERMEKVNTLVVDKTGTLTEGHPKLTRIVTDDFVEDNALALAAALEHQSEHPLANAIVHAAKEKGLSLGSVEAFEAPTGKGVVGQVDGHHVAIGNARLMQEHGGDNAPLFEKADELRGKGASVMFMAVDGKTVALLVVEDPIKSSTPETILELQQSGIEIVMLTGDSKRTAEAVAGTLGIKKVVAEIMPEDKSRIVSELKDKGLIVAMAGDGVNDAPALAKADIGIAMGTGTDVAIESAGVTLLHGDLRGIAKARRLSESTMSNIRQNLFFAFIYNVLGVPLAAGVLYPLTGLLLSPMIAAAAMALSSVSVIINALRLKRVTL

Row | Compound | Measured LpCopA activity in the presence of different ions (relative ATPase activity) [1] | CuCl2 concentration of optimum ATPase activity (HMBD-truncated LpCopA) | CuCl2 concentration of highest ATPase activity ([1]; full-length LpCopA, 10 nM to 10 mM CuCl2 incl. 10 μM TTM, appears inhibited above)
1 | [Ag+] [Ag^+] | clearly stimulate ATPase activity |  | 
2 | [Cl][Cu][Cl] [CuCl2] |  | about 1 mM | 1 mM
3 | [Cu+] [Cu^+] | clearly stimulate ATPase activity |  | 
